Results taken from patent US6313171A, “Method for preventing or treating elevated blood lipid level-related diseases by administering cinnamic acid derivatives” (Korea Research Institute of Bioscience & Biotechnology, priority 1998, dated 2001).

How the values were obtained:
HMG-CoA reductase = molecular target: T1, HMG-CoA reductase (Rattus norvegicus, UniProt P51639); assay: HMG-CoA reductase activity assay, liver microsomes of the fed rats; assay type: biochemical; conditions: liver microsomes of rats fed 0.1% in 1% cholesterol diet; Control 0
T1 construct: the supernatant was ultracentrifuged at 100,000×g for 60 minutes to obtain microsomal precipitates; from tissue; host or cells: rat liver microsomes
T1 sequence (P51639 1-887): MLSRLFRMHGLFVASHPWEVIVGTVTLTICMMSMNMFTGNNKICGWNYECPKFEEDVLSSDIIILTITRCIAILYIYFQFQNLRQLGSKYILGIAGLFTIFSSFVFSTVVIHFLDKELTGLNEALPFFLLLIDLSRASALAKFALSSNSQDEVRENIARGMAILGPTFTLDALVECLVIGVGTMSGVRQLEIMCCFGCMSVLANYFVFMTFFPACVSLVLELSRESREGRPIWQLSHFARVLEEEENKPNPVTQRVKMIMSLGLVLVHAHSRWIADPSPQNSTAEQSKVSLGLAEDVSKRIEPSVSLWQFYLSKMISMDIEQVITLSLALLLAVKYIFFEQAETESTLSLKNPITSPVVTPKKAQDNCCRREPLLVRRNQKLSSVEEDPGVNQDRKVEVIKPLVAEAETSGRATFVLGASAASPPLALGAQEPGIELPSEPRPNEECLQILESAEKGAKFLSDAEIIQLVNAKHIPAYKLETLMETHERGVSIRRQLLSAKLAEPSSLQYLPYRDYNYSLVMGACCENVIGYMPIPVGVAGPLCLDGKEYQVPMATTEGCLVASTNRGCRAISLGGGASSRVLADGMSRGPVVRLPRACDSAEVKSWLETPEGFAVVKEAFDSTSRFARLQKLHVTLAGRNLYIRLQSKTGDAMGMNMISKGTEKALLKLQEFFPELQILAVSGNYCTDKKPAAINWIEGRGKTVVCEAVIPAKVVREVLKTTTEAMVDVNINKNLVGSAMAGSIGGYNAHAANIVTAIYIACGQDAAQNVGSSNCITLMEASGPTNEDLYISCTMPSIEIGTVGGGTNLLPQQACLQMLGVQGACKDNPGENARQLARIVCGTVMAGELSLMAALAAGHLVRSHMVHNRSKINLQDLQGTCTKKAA
Experimental: In order to determine the activity of HMG-CoA reductase, Hulcher's method was employed after some modification (see J. Lipid Res., 14, 625-641(1973)). In this method, the concentration of the coenzyme-A (CoA-SH), which is produced when HMG-CoA is reduced to a mevalonate salt by the action of HMG-CoA reductase, is determined by spectroscopy and the activity of HMG-CoA reductase is calculated therefrom.
3 g of liver tissue taken from each group of rats of Example 2 was washed successively with 100 ml of a cold saline (0.15 M NaCl) and 100 ml of a cold buffer solution A (0.1 M triethanolamine, HCl/0.2 M EDTA/2 mM dithiothreitol (DTT)). The cold buffer solution A was added to the liver tissue in an amount of 2 ml per 1 g of the liver tissue and the mixture was homogenized with a homogenizer. The homogenate was centrifuged at 15,000×g for 15 minutes, and then, the supernatant was ultracentrifuged at 100,000×g for 60 minutes to obtain microsomal precipitates. The precipitates thus obtained was washed with a cold buffer solution A and kept in a 1.5 ml tube at -70° C.
The reaction substrates used in HMG-CoA reductase activity assay were as follows: i) buffer solution B: 0.1 M triethanolamine, HCl/0.02 M EDTA (pH 7.4), ii) HMG-CoA solution: 150 μmoles/culture medium, and iii) NADPH solution: 2 μmoles/culture medium.
The suspension (microsome) was mixed with the reaction substrate and the mixture was placed in a centrifugation tube and reacted at 37° C. for 30 minutes. […]
Then, the reactant was mixed with 20 μl of DTNB buffer solution (3 mM DTNB/0.1 M triethanolamine/0.2 M EDTA, pH 7.4) and the absorbance of the mixture was determined at 412 nm to calculate the amount of CoA-SH (activity of HMG-CoA reductase).
The extent of inhibition of HMG-CoA reductase activity by cinnamic acid derivatives was calculated based on the above result.

main artery = assay: Analysis for fatty streak in the main artery of rabbits; assay type: in vivo, rabbit (New Zealand White); conditions: for macrophage-lipid complex on the arterial endothelium: FIGS. 1A-1E, control: a thick layer; for Fatty streak: proportion of total arterial area, Oil Red O, rabbits, 8 weeks, Control 80 ± 8
Experimental: Cinnamic acid derivatives were purchased from Sigma Chemical Co. (St. Louis, Mo.). The rabbits were fed for 8 weeks while being allowed free access to the diets and water. The chest of each of the rabbits sacrificed in Step 2 was incised. […] The main artery was incised in the middle along the longitudinal axis and pinned to a dish. The moist artery was photographed and, then, the staining of fatty streaks was carried out in accordance with the method of […]., et al. (J. Lab. Clin. Med., 121, 103-110(1993)) as follows. A part of the incised main artery was washed three times with anhydrous propylene glycol for 2 min. and stained for 30 min. with a saturated solution of Oil Red O (ORO, Sigma Co.) dissolved in propylene glycol. Thereafter, the artery was washed twice with 85% propylene glycol for 3 min. to remove remaining staining solution and, then washed with physiological saline. The artery was photographed and the photograph was traced. The area of stained region (fatty streak region) was determined with an image analyzer (LEICA, Q-600, Germany) and its proportion (%) to the total arterial area was calculated.

liver = assay: Prevention of hepatic diseases: microscopic fatty liver grading in rabbits; assay type: in vivo, rabbit (New Zealand White); conditions: for microscopic features of the liver: FIGS. 2A-2E, control: many cells containing excessive fat around the central vein; for fatty liver grade (1+ to 4+): grades 1+(0-25%), 2+(26-50%), 3+(51-75), 4+(76-100%), rabbits, 8 weeks, Control 3.2 ± 0.3
Experimental: 30 three-month-old male New Zealand White rabbits (Yeonam Horticulture and Animal Husbandry College, Korea), each weighing about 2.5 to 2.6 kg, were raised under condition of temperature 20±2° C., relative humidity 55±5%, and photoperiod 12L/12D. The rabbits were divided into 5 groups and 5 groups of rabbits were fed with 5 different diets, i.e., RC4 diet (Oriental Yeast Co., Japan) containing 1% cholesterol (Control group); 1% cholesterol plus 1 mg/kg Lovastatin® (Merck, U.S.A.) (Lovastatin group); 1% cholesterol plus 0.1% 4-hydroxycinnamic acid (4-hydroxycinnamic acid group); 1% cholesterol plus 0.1% 3,4-dihydroxycinnamic acid (3,4-dihydroxycinnamic acid group); and 1% cholesterol plus 0.1% 3,4-dihydroxyhydrocinnamic acid (3,4-dihydroxyhydrocinnamic acid group), respectively. RC4 diet comprises 7.6% moisture, 22.8% crude protein, 2.8% crude fat, 8.8% crude ash, 14.4% crude cellulose and 43.6% soluble nitrogen-free substances. Cinnamic acid derivatives were purchased from Sigma Chemical Co. (St. Louis, Mo.).
The rabbits were fed for 8 weeks while being allowed free access to the diets and water.

| Inhibition of HMG-CoA reductase activity (HMG-CoA reductase) [%] | Structure (SMILES) | macrophage-lipid complex on the arterial endothelium (main artery) | Fatty streak (main artery) [%] | microscopic features of the liver (liver) | fatty liver grade (1+ to 4+) (liver) |
| --- | --- | --- | --- | --- | --- |
| 44 | O=C(O)/C=C/c1ccc(O)c(O)c1 [3,4-dihydroxycinnamic acid] | no or very thin layers of macrophage-lipid complex | 13 ± 5 | almost all liver cells are of a normal shape | 2.6 ± 0.3 |
| 70 | O=C(O)CCc1ccc(O)c(O)c1 [3,4-dihydroxyhydrocinnamic acid] | no or very thin layers of macrophage-lipid complex | 16 ± 1 | almost all liver cells are of a normal shape | 2.6 ± 0.3 |

| Structure (SMILES) | Inhibition of HMG-CoA reductase activity (HMG-CoA reductase) [%] | macrophage-lipid complex on the arterial endothelium (main artery) | Fatty streak (main artery) [%] | microscopic features of the liver (liver) | fatty liver grade (1+ to 4+) (liver) |
| --- | --- | --- | --- | --- | --- |
| O=C(O)/C=C/c1ccc(O)cc1 [4-Hydroxycinnamic acid, 4-hydroxycinnamic acid] | 31 | no or very thin layers of macrophage-lipid complex | 24 ± 11 | almost all liver cells are of a normal shape | 2.7 ± 0.3 |
